The values below come from paper PMC12627862, “Therapeutic targeting of endothelial calcium signaling accelerates the resolution of lung injury” (Signal Transduction and Targeted Therapy, 2025).

Where two headings read alike, the source gives them in different places. Starred links: 1 amine or outer side, 2 acyl side, 3 side chain; linkers in the order of their positions; H or OH if unused. Positions of bridges follow the written chain, without caps; N, C: chain ends. Non-standard residues stand in square brackets, D forms with d. Residues, ends and D or L forms follow the SMILES beside them. *: point of attachment. Leu(4,5-dehydro) = C=C(C)C[C@H](N)C(=O)O; Oic = O=C(O)[C@@H]1C[C@@H]2CCCC[C@@H]2N1; d(tBuAla) = CC(C)(C)C[C@@H](N)C(=O)O; dVal(3-OH) = CC(C)(O)[C@@H](N)C(=O)O; tBuAla = CC(C)(C)C[C@H](N)C(=O)O; R5 = C=CCCC[C@@](C)(N)C(=O)O; S5 = C=CCCC[C@](C)(N)C(=O)O; X1 = O=C(CC(O)CN[*:1])[*:2]; 4Amb = NCc1ccc(C(=O)O)cc1; X3 = NCC(O)CC(=O)*

A short description of series [1]: Stability of selected EB3 inhibitors in human blood plasma. The series is classed as in vitro ADME. The procedure:
Supplementary Table 3. Stability of selected EB3 inhibitors in human blood plasma. The indicated inhibitors were incubated with human plasma at 37 °C and samples were taken at the indicated time points. Plasma proteins were precipitated with ice-cold perchloric acid (60%); the concentration of compounds was measured in supernatant using a liquid chromatography-tandem mass spectrometry (LC-MS/MS). See also Figures 1 and 2.

Series [2] is described as follows: Lipophilicity of peptides, logP(oct/wat). The series is classed as physicochemical. The procedure: (§1) The solubilities of the synthesized compounds were determined experimentally (Supplementary Table 2). Most compounds were highly soluble at a 1 mM concentration; however, some compounds tended to form aggregates. These compounds were excluded from further studies. In addition, we experimentally determined the lipophilicity of each compound, logP(oct/wat)=log(soluteoct/solutewat ), which is the partition coefficient of a compound between aqueous (water) and lipophilic (octanol) phases (Supplementary Table 2).
Lipophilicity of peptides. Two separate solutions were obtained: an aqueous phosphate buffer with saturated n-octanol, and an n-octanol solution with saturated phosphate buffer. Peptides were then dissolved and diluted in the phosphate buffer. Different partitions were then made with different n-octanol to water ratio before shaking for an hour at room temperature. The aqueous phase and n-octanol were allowed to equilibrate, and each phase was extracted and analyzed for peptide concentrations. The ratio of peptide concentration in n-octanol to that in water is expressed as log(P).

Series [3] can be described thus: Stability at various storage conditions. The note with it: for amount of peptide remaining after storage: phosphate-buffered sterile saline, 8 days, LC-MS/MS. The series is classed as physicochemical. The method, then: Stability assay of peptides in various storage conditions. Peptides were dissolved and stored in phosphate-buffered sterile saline at -20, 4, 37, and 60°C for 8 days. The amount of peptide remaining after the study was analyzed by LC-MS/MS.
Supplementary Table 5. Stability of selected compounds at various storage conditions. Preliminary accelerated storage stability at various temperature conditions for the selected inhibitors was tested in phosphate-buffered sterile saline at -20 °C, 4 °C, 37 °C and 60 °C for 8 days. See also Figures 1 and 2.

Series [4] addresses EB3 interactions with IP3R3-GFP (Homo sapiens, UniProt Q9UPY8). Put plainly: Competitive binding: inhibition of EB3 interaction with IP3R3-GFP in vitro. The series is classed as biochemical. The note with it: 250 nM. The source says: We tested the efficacy of twenty-three compounds in inhibiting EB3 interactions with IP3R3-GFP via an in vitro approach developed by us[12],[13]. […] Guided by NMR studies, we predicted the binding pose of 109 to EB3 via AutoDock Vina[13],[24],[25].

A short description of series [5]: Aggregation / solubility at 1 mM. It counts as physicochemical. Particulars: summary calls it solubility at 1mM. The method, then: as §1
The subject of series [6] is human primary microvascular lung endothelial cells (HLMVECs). Kind of series: Peptide uptake in endothelial cells. It counts as cell-based. The method, then:
We next analyzed the cell-penetrating properties of the selected compounds, hereafter referred to as vascular therapeutics (VT). The rate of uptake of 5’6-FAM (fluorescein)-labeled compounds by human primary microvascular lung endothelial cells (HLMVECs) was determined via confocal fluorescence live-cell imaging. FAM-labeled Myr-EBIN[13] and fluorescein alone were used as positive and negative controls, respectively. The t½ uptake and maximal uptake were determined from changes in the integrated fluorescence intensity over a 30 min period (Fig. 2a and Supplementary Fig. 1a). […] Like Myr-EBIN, compounds VT-107, -108 and -109 presented the highest uptake rates of 92.5 ± 5.0%, 82.5 ± 2.8% and 94.7 ± 4.9%, respectively, whereas the linear compound VT-101 was taken up less efficiently, with an average uptake of 58.4 ± 2.7% (Fig. 2a). […] The t½ uptake, however, varied between the tested compounds (Fig. 2b). The stapled compounds presented the shortest t½ uptake, whereas the linear compounds presented the longest t½ (Fig. 2b).
Peptide uptake in endothelial cells. The rate of peptide uptake by primary human microvascular endothelial cells was measured using 5’6FAM (fluorescein)-labeled peptides and confocal fluorescence live-cell imaging, with fluorescein alone used as a negative control. Changes in intracellular fluorescence for each peptide were monitored over time, and saponin, a detergent, was added at the end of the experiment to induce full uptake of the tested peptides by endothelial cells. The fluorescence intensity inside the cells was tracked over time, and the half-time uptake (t1/2) and maximum uptake were calculated.

Chain of EB3 interactions with IP3R3-GFP (Q9UPY8 whole entry): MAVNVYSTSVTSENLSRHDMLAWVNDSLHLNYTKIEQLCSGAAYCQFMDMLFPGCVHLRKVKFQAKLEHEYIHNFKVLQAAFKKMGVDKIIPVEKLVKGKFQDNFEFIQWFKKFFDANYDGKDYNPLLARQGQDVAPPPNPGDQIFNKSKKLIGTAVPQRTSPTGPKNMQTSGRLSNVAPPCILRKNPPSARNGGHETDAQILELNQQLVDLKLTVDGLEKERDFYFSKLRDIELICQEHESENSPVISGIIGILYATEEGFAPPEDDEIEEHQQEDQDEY

`C=C(C)C[C@@H]1NC(=O)[C@](C)(NC(=O)c2ccc(CNC(=O)CC(O)CN)cc2)CCC/C=C\CCC[C@@](C)(C(=O)N[C@H](CC(C)(C)C)C(=O)O)NC(=O)CC(O)CNC(=O)[C@@H]2C[C@@H]3CCCC[C@@H]3N2C1=O` (stereo partly drawn) [compound 107, (2R)-2-((8S,17R,20S,22aS,26aS,27aS,Z)-17-(4-((4-amino-3-hydroxybutanamido)methyl)benzamido)-4-hydroxy-8,17-dimethyl-20-(2-methylallyl)-1,6,18,21-tetraoxo 2,3,4,5,6,7,8,9,10,11,14,15,16,17,18,19,20,21,22a,23,24,25,26,26a,27,27a-hexacosahydro-1H-[1,4,7,12]tetraazacyclotricosino[4,5-a]indole-8-carboxamido)-4,4-dimethylpentanoic acid] ({X3-4Amb}-[R5][Leu(4,5-dehydro)][Oic][X1][S5][d(tBuAla)]-OH; staple (Z) 1-5): the fraction remaining at 1.5 h in series [1] (human plasma, 37 °C, 1.5 hr, perchloric acid (60%) precipitation, LC-MS/MS, read-out: compound remaining in human plasma) was 87%. Moreover, the share remaining at 20 h in series [1] (human plasma, 37 °C, 20 hr, perchloric acid (60%) precipitation, LC-MS/MS, read-out: compound remaining in human plasma) came to 65%. Further, the logD in series [2] (shake-flask n-octanol/phosphate buffer, mutually saturated, shaken 1 hour at room temperature, read-out: Log P (Octanol/Water)) came to 0.51. The “amount of peptide remaining after storage” value in series [3] (4 °C) was determined as 88%; in series [3] (37 °C), 85%; in series [3] (60 °C) it was 85%; in series [3] (-20 °C) it was 94%. In series [4], this compound registered an inhibition at 0.25 µM of 65%. Also, the “Aggregation at 1mM” value in series [5] was “weak signal”. In series [6] (5’6-FAM-labeled compounds, HLMVECs, confocal live-cell imaging over 30 min, mean ± SEM, n = 16–45 cells per group), the “uptake, percentage of the maximal values obtained following saponin treatment” value amounted to 92.5 ± 5.0%. Also, the “half-time uptake t1/2” value in series [6] (5’6-FAM-labeled compounds, HLMVECs, confocal live-cell imaging, n = 3 independent experiments) turned out to be 0.21 ± 0.40 min. For the same compound, the “penetration of the cell membrane” value in series [6] (5’6-FAM-labeled compounds, HLMVECs, no cell internalization signal) is on record as “able to penetrate the cell membrane without the addition of a cell internalization signal”.

In series [1] (human, plasma), `CC(C)(C)C[C@H](NC(=O)CC(O)CNC(=O)[C@@H]1C[C@@H]2CCCC[C@@H]2N1C(=O)[C@H](CC(C)(C)C)NC(=O)c1ccc(CNC(=O)[C@H](NC(=O)[C@H](N)Cc2ccccc2)C(C)(C)O)cc1)C(=O)O` (stereo partly drawn) [compound 101, (2S)-2-(4-((2S,3aS,7aS)-1-((S)-2-(4-(((R)-2-((R)-2-amino-3-phenylpropanamido)-3-hydroxy-3-methylbutanamido)methyl)benzamido)-4,4-dimethylpentanoyl)octahydro-1H-indole-2-carboxamido)-3-hydroxybutanamido)-4,4-dimethylpentanoic acid.] (H-[dF][dVal(3-OH)][4Amb][tBuAla][Oic][X1][tBuAla]-OH) showed an amount remaining at 1.5 h of 87% and a share remaining at 20 h of 85%. Further, the logD in series [2] was determined as 0.52. In addition, the storage stability entry in series [3] is recorded as “stable”. This compound displayed an inhibition at 0.25 µM in series [4] of 41%. Besides, the “Aggregation at 1mM” value in series [5] is recorded as “weak signal”. Moreover, in series [6], the “half-time uptake t1/2” value came out at 9.58 ± 0.09 min and the “penetration of the cell membrane” value is recorded as “able to penetrate the cell membrane without the addition of a cell internalization signal”.
